Where “and” joins values, the source holds several entries; their conditions need not be identical. Equal values may be shown once. Toxic doses and inconclusive results are not listed. No stated cut-off is given here; in the data, active means T/C of 150% or more; inactive means T/C below 125%.
System: L1210 leukemia ip in BDF1 mice, survival T/C
Experiment: NCI In Vivo Anticancer Drug Screen. Data for tumor model L1210 Leukemia (intraperitoneal) in B6D2F1 (BDF1) mice
Details: endpoint: mean survival time, higher = longer survival
How it was run: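 Tumor was transplanted into mice, which were then dosed with test compound or vehicle alone. Survival was recorded for each group, and the treated figure was expressed relative to the control figure.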

[1] = dose: 50.0 mg/kg/injection, schedule: Q01DX009 (ip), vehicle: saline
[2] = dose: 100.0 mg/kg/injection, schedule: Q01DX009 (ip), vehicle: saline
[3] = dose: 100.0 mg/kg/injection, schedule: Q04DX003 (ip), vehicle: saline
[4] = dose: 200.0 mg/kg/injection, schedule: Q04DX003 (ip), vehicle: saline
[5] = dose: 400.0 mg/kg/injection, schedule: Q04DX003 (ip), vehicle: saline
[6] = dose: 50.0 mg/kg/injection, schedule: Q01DX009 (ip), vehicle: saline with Tween-80
[7] = dose: 100.0 mg/kg/injection, schedule: Q01DX009 (ip), vehicle: saline with Tween-80
[8] = dose: 100.0 mg/kg/injection, schedule: Q04DX003 (ip), vehicle: saline with Tween-80
[9] = dose: 200.0 mg/kg/injection, schedule: Q04DX003 (ip), vehicle: saline with Tween-80
[10] = dose: 400.0 mg/kg/injection, schedule: Q04DX003 (ip), vehicle: saline with Tween-80
[11] = dose: 100.0 mg/kg/injection, schedule: Q01DX009 (ip), vehicle: Klucel (hydroxypropylcellulose) (HPC)
[12] = dose: 100.0 mg/kg/injection, schedule: Q04DX003 (ip), vehicle: Klucel (hydroxypropylcellulose) (HPC)
[13] = dose: 200.0 mg/kg/injection, schedule: Q01DX009 (ip), vehicle: Klucel (hydroxypropylcellulose) (HPC)
[14] = dose: 200.0 mg/kg/injection, schedule: Q04DX003 (ip), vehicle: Klucel (hydroxypropylcellulose) (HPC)
[15] = dose: 400.0 mg/kg/injection, schedule: Q01DX009 (ip), vehicle: Klucel (hydroxypropylcellulose) (HPC)
[16] = dose: 400.0 mg/kg/injection, schedule: Q04DX003 (ip), vehicle: Klucel (hydroxypropylcellulose) (HPC)
[17] = dose: 100.0 mg/kg/injection, schedule: Q01DX001 (ip), vehicle: saline with Tween-80
[18] = dose: 200.0 mg/kg/injection, schedule: Q01DX001 (ip), vehicle: saline with Tween-80
[19] = dose: 50.0 mg/kg/injection, schedule: Q01DX001 (ip), vehicle: Klucel (hydroxypropylcellulose) (HPC)

Measured: T/C

CCCCCCCC(=O)N(CC)CC
inactive: dose: 25.0 mg/kg/injection, schedule: Q04DX002 (ip), vehicle: saline 103 % of control | [1] 97 % of control | dose: 50.0 mg/kg/injection, schedule: Q04DX002 (ip), vehicle: saline 103 % of control | [2] 101 % of control | dose: 100.0 mg/kg/injection, schedule: Q04DX002 (ip), vehicle: saline 100 % of control | dose: 200.0 mg/kg/injection, schedule: Q04DX002 (ip), vehicle: saline 100 % of control and 102 % of control | dose: 400.0 mg/kg/injection, schedule: Q04DX002 (ip), vehicle: saline 102 % of control

O=[N+]([O-])c1ccc(/C=C/c2ccc([N+](=O)[O-])cc2S(=O)(=O)O)c(S(=O)(=O)O)c1
inactive: [3] 94 % of control | [4] 96 % of control | [5] 96 % of control

NC1=NNC(N)=NN1
inactive: dose: 12.5 mg/kg/injection, schedule: Q01DX009 (ip), vehicle: saline 93 % of control | dose: 25.0 mg/kg/injection, schedule: Q01DX009 (ip), vehicle: saline 101 % of control | [1] 100 % of control and 107 % of control | [2] 92 % of control

CCC1c2ccc3cc(OC)ccc3c2CC1CC(=O)O (configuration not stated)
inactive: [3] 92 % of control | [4] 92 % of control | [5] 86 % of control

O=P(Cc1ccccc1)(N1CCOCC1)N1CCOCC1
inactive: [3] 100 % of control | [4] 93 % of control | [5] 104 % of control

CCOC(=O)CCCN(c1[nH]c(C)c(C)c1C#N)S(=O)(=O)c1ccc(C)cc1
inactive: [6] 93 % of control | dose: 50.0 mg/kg/injection, schedule: Q04DX003 (ip), vehicle: saline with Tween-80 93 % of control | [7] 96 % of control | [8] 90 % of control | dose: 200.0 mg/kg/injection, schedule: Q01DX009 (ip), vehicle: saline with Tween-80 90 % of control | [9] 101 % of control | dose: 400.0 mg/kg/injection, schedule: Q01DX009 (ip), vehicle: saline with Tween-80 100 % of control | [10] 95 % of control

COc1cccc(/C=N/N=C(N)N)c1
inactive: dose: 15.0 mg/kg/injection, schedule: Q01DX Z (ip), vehicle: saline 94 % of control | dose: 30.0 mg/kg/injection, schedule: Q01DX Z (ip), vehicle: saline 97 % of control | dose: 30.0 mg/kg/injection, schedule: Q01DX Z (oral), vehicle: saline 104 % of control | dose: 60.0 mg/kg/injection, schedule: Q01DX Z (ip), vehicle: saline 92 % of control | dose: 60.0 mg/kg/injection, schedule: Q01DX Z (oral), vehicle: saline 104 % of control | dose: 120.0 mg/kg/injection, schedule: Q01DX Z (oral), vehicle: saline 101 % of control

O=C(/C=C/c1ccco1)c1ccc(Cl)cc1
inactive: dose: 100.0 mg/kg/injection, schedule: Q01DX009 (ip), vehicle: saline sonified 91 % of control | dose: 200.0 mg/kg/injection, schedule: Q01DX009 (ip), vehicle: saline sonified 104 % of control | dose: 400.0 mg/kg/injection, schedule: Q01DX009 (ip), vehicle: saline sonified 94 % of control

CCCCCCC(=O)CC(C)C
inactive: [11] 101 % of control | [12] 97 % of control | [13] 103 % of control | [14] 102 % of control | [15] 109 % of control | [16] 107 % of control

[C-]#[N+]CCc1ccccc1
inactive: [17] 98 % of control | [18] 96 % of control

COc1ccc(NC(=O)CC(C)=O)cc1
inactive: dose: 100.0 mg/kg/injection, schedule: Q01DX001 (ip), vehicle: other 92 % of control | [8] 94 % of control | dose: 200.0 mg/kg/injection, schedule: Q01DX001 (ip), vehicle: other 97 % of control | [9] 100 % of control | dose: 400.0 mg/kg/injection, schedule: Q01DX001 (ip), vehicle: other 103 % of control | [10] 99 % of control

O=C(COc1ccccc1)NCCc1ccccc1
inactive: dose: 100.0 mg/kg/injection, schedule: Q04DX003 (ip), vehicle: gum acacia 97 % of control | dose: 200.0 mg/kg/injection, schedule: Q04DX003 (ip), vehicle: gum acacia 108 % of control | dose: 400.0 mg/kg/injection, schedule: Q04DX003 (ip), vehicle: gum acacia 95 % of control

O=C(c1ccccc1)C1CCCCCC1
inactive: [11] 108 % of control | [12] 94 % of control | [13] 102 % of control | [14] 98 % of control | [15] 104 % of control | [16] 98 % of control

Nc1cc2ccncc2c2sc3ccccc3c12
inactive: [2] 86 % of control | [3] 90 % of control | dose: 200.0 mg/kg/injection, schedule: Q01DX009 (ip), vehicle: saline 91 % of control | [4] 90 % of control | dose: 400.0 mg/kg/injection, schedule: Q01DX009 (ip), vehicle: saline 93 % of control | [5] 90 % of control

COc1cc(C=Nc2ccc(-n3ccnc3C)cc2)ccc1N(CCCl)CCCl
inactive: dose: 1.0 mg/kg/injection, schedule: Q01DX009 (ip), vehicle: Klucel (hydroxypropylcellulose) (HPC) 110 % of control | dose: 2.0 mg/kg/injection, schedule: Q01DX009 (ip), vehicle: Klucel (hydroxypropylcellulose) (HPC) 114 % of control | dose: 2.5 mg/kg/injection, schedule: Q01DX009 (ip), vehicle: Klucel (hydroxypropylcellulose) (HPC) 104 % of control and 106 % of control | dose: 3.8 mg/kg/injection, schedule: Q01DX009 (ip), vehicle: Klucel (hydroxypropylcellulose) (HPC) 104 % of control | dose: 5.0 mg/kg/injection, schedule: Q01DX009 (ip), vehicle: Klucel (hydroxypropylcellulose) (HPC) 114 % of control | dose: 8.8 mg/kg/injection, schedule: Q04DX003 (ip), vehicle: Klucel (hydroxypropylcellulose) (HPC) 98 % of control and 123 % of control | dose: 19.0 mg/kg/injection, schedule: Q01DX009 (ip), vehicle: Klucel (hydroxypropylcellulose) (HPC) 110 % of control | dose: 20.0 mg/kg/injection, schedule: Q01DX009 (ip), vehicle: Klucel (hydroxypropylcellulose) (HPC) 124 % of control | dose: 29.0 mg/kg/injection, schedule: Q04DX003 (ip), vehicle: Klucel (hydroxypropylcellulose) (HPC) 102 % of control | dose: 30.0 mg/kg/injection, schedule: Q04DX003 (ip), vehicle: Klucel (hydroxypropylcellulose) (HPC) 104 % of control

O=S(=O)(CCCS(=O)(=O)Nc1ccccc1)Nc1ccccc1
inactive: [17] 103 % of control | [18] 97 % of control | dose: 400.0 mg/kg/injection, schedule: Q01DX001 (ip), vehicle: saline with Tween-80 90 % of control

C[Si](C)(O[Si](C)(C)C1C=CC=C1)C1C=CC=C1
inactive: dose: 12.5 mg/kg/injection, schedule: Q01DX001 (ip), vehicle: Klucel (hydroxypropylcellulose) (HPC) 91 % of control | dose: 25.0 mg/kg/injection, schedule: Q01DX001 (ip), vehicle: Klucel (hydroxypropylcellulose) (HPC) 91 % of control | [19] 88 % of control

CC1(C)C/C(=C\c2ccc(Br)cc2)C(=O)c2ccccc21
inactive: [11] 98 % of control | [12] 106 % of control | [13] 95 % of control | [14] 106 % of control | [15] 101 % of control | [16] 104 % of control

CSc1ncc(CO)c(N2CC2)n1
inactive: dose: 100.0 mg/kg/injection, schedule: Q01DX Z (ip), vehicle: methylcellulose (MC) 87 % of control

CC(C)(C)c1cc(C(C)(C)[N+](C)(C)C)cc(C(C)(C)C)n1
inactive: [19] 102 % of control | dose: 100.0 mg/kg/injection, schedule: Q01DX001 (ip), vehicle: Klucel (hydroxypropylcellulose) (HPC) 90 % of control

Cc1nc2c(O)cccn2c(=O)c1Cl
inactive: dose: 25.0 mg/kg/injection, schedule: Q01DX009 (ip), vehicle: saline with Tween-80 92 % of control | [6] 94 % of control | [7] 97 % of control

CSc1c(C(N)=O)c2c(N)ncnc2n1C1OC(CO)C(O)C1O (configuration not stated)
inactive: dose: 100.0 mg/kg/injection, schedule: Q01DX001 (ip), vehicle: saline 114 % of control | dose: 200.0 mg/kg/injection, schedule: Q01DX001 (ip), vehicle: saline 121 % of control | dose: 400.0 mg/kg/injection, schedule: Q01DX001 (ip), vehicle: saline 121 % of control

From PubChem BioAssay AID248 (DTP/NCI, 2004)
